# In ChEMBL document CHEMBL1201862, “PubChem BioAssay data set” (2004):
# Calls of active or inactive are those of the source. For most assays here, no stated cut-off is given here; in the data, actives have a measured EC50 and inactives only a lower limit.
# Legend:
# [1] = target: T1, Heat shock factor protein 1 (Mus musculus, UniProt P38532); assay: inhibition of MG132-induced HSE-luciferase signal, confirmation, cell-based, NIH3T3, luminescence, dose retest (AID 2382); format: functional;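 further: NIH3T3 fibroblasts with HSF1-driven luciferase reporter stressed by proteasome inhibitor MG132; luminescence from HSF1-driven luciferase expression after 8 hours of MG132 stress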
# T1 sequence (P38532 whole entry): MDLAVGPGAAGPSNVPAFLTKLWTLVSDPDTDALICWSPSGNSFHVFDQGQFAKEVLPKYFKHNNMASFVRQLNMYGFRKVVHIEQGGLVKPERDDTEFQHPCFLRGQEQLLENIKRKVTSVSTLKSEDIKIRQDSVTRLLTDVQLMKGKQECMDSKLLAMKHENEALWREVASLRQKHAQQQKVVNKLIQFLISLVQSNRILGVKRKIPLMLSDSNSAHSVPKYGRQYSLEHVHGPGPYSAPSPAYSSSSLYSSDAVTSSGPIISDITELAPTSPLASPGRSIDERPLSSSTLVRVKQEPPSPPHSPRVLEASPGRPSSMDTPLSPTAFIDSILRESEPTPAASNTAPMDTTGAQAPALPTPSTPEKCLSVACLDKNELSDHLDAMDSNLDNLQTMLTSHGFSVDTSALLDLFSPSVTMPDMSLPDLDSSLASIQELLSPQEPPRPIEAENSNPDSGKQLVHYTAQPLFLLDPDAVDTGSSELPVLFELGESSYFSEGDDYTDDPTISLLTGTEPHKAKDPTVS
# Paired box protein Pax-8 = Paired box protein Pax-8 (Homo sapiens, UniProt Q06710); assay: inhibitors of PAX8-driven TPO luciferase reporter, dose response, RMG-I cells, cherry-pick (AID 687027); format: functional, cell-based;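 further: luciferase reporter driven by Pax8 target thyroperoxidase promoter measured by SteadyGlo luminescence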
# Streptococcus = assay: Group A Streptococcus viability loss, dose response, counter-screen for streptokinase expression inhibitor project, luminescence, BacTiterGlo (AID 1915); format: functional, organism-based;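 further: potency for reduction of bacterial viability or growth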
# [2] = target: T2, Carboxy-terminal domain RNA polymerase II polypeptide A small phosphatase 1 (Homo sapiens, UniProt Q9GZU7); assay: inhibitors of CTDSP1, concentration-response testing, biochemical assay, absorbance-based, actives from ultra-high-throughput screening (AID 540297); format: functional
# T2 sequence (Q9GZU7 whole entry): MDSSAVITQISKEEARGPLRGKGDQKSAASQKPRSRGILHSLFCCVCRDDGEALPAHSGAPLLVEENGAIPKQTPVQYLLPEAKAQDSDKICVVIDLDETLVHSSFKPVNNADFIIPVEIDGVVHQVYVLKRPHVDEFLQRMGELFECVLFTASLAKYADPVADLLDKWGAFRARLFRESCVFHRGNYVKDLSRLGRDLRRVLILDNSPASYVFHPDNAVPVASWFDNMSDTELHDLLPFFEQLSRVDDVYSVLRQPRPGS
# [3] = test system: Streptococcus sp. 'group A'; assay: growth inhibition of control SK(-) GAS strain, dose response, counter-screen for streptokinase expression inhibitor project, luminescence, kanamycin, BacTiterGlo, confirmation (AID 1900); format: functional, organism-based
# [4] = NIH-3T3 fibroblast cytotoxicity, dose response, cytotoxicity control, cell-based, fluorescence, Alamar Blue, secondary assay (AID 2327); format: functional;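 further: NIH-3T3 mouse fibroblasts cultured with fluconazole at 8 µg/mL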
# [5] = C. albicans growth with fluconazole, confirmation, fluorescence, retest (AID 2467); format: functional, cell-based
# [6] = HEp-2 cell cytotoxicity, dose response, cytotoxicity control for RSV inhibitor project, HTS (AID 2410); format: functional; conditions: human respiratory syncytial virus
# [7] = Luminescence Cell-Based Dose Retest to Confirm Inhibitors of Cancer Stem Cells. [Related pubchem assays (depositor defined):AID2717, AID2721]; format: functional; conditions: Homo sapiens
# [8] = inhibitors of intracellular T. cruzi replication, confirmation, NIH3T3 host cells, beta-gal luminescence (AID 2044); format: functional, cell-based;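 further: intracellular parasites grown in NIH/3T3 mouse fibroblasts as host cells; luminescent beta-galactosidase reporter signal from transgenic T. cruzi replicating inside host cells; inhibitors lower the luminescence signal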
# [9] = cytotoxicity toward NIH3T3 fibroblasts, dose response, counter-screen, cell-based, ATP luminescence, mouse fibroblasts (AID 2010); format: functional;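 further: cells exposed to compound for about 90 hours before reading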
# [10] = growth suppression of beta-catenin-knockout colon cells, dose response, cell-based, HCT116, human colon tumor (AID 1045); format: functional;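 further: HCT116 colon tumor cells with beta catenin knocked out; cells exposed to compound for 60 hours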
# [11] = target: FAD-linked sulfhydryl oxidase ALR (Homo sapiens, UniProt P55789); assay: inhibitors of human ALR sulfhydryl oxidase, dose response, biochemical, H2O2 detection, luminescence, cherry-pick (AID 493248)
# Chain of FAD-linked sulfhydryl oxidase ALR (P55789 whole entry): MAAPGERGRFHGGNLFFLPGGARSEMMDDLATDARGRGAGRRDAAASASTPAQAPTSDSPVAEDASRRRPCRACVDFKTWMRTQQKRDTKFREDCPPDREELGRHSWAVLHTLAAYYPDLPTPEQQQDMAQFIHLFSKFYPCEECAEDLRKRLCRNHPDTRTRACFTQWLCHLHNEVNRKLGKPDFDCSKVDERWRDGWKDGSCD
# Chain of Paired box protein Pax-8 (Q06710 whole entry): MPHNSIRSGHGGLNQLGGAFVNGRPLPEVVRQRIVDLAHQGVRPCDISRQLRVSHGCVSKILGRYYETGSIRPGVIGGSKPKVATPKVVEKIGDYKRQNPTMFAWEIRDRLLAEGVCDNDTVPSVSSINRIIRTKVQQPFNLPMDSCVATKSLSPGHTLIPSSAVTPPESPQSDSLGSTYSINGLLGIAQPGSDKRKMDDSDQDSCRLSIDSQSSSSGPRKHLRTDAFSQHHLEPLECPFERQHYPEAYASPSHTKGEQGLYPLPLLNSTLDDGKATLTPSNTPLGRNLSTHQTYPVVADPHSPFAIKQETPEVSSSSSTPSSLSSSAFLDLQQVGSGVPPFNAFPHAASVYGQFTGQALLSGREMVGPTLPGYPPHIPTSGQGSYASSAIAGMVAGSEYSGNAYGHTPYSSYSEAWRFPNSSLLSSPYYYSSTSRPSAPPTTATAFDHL
compound,measurement,setting,value
COc1cc(O)nc(SCC(=O)Nc2nc3c(s2)CCCC3)n1,EC50,[1],> 195 µM (not active)
O=C(CCl)Nc1cc2[nH]c(O)nc2cc1Br,AC50,Paired box protein Pax-8,3.95 µM (active)
O=C(Nc1nnc(SCc2c(Cl)cccc2Cl)s1)C1CC(=O)N(c2ccc3c(c2)OCCO3)C1 (stereo not drawn),EC50,Streptococcus,31.8 µM (active)
same,IC50,[2],4.6 µM (active)
same,EC50,[3],44.2 µM (active)
CCOC(=O)CSC1=C(C#N)C(c2ccccc2C)C2=C(O)CCCC2=N1 (stereo not drawn),EC50,[1],> 195 µM (not active)
O=c1oc2c(-c3ccc([N+](=O)[O-])cc3)cc(O)cc2s1,IC50,[2],6.91 µM (active)
CCN(c1ccccc1)S(=O)(=O)c1ccc(Cl)c(NC(=O)CN2C(=O)NC3(CCCC3)C2=O)c1,EC50,[4],> 150 µM (inconclusive)
same,EC50,[5],4.42 µM (active)
Cc1ccc(C)c2nc(O)c(CCNC(=O)C(C)(C)C)cc12,EC50,[1],> 195 µM (not active)
CC(=O)c1ccc(NC(=O)CCS(=O)(=O)c2ccc3c(c2)n(C)c(=O)c(=O)n3C)cc1,IC50,[2],> 80 µM (inactive)
CN(c1ccccc1)S(=O)(=O)c1cccc(NC(=O)CN2CCc3ccccc3C2)c1,CC50,[6],22.4 µM (active)
O=C(O)c1cccc(-n2cccc2/C=C2\SC(=O)N(Cc3ccccc3F)C2=O)c1,IC50,[2],4.62 µM (active)
C=C(C)COc1ccc(-c2n[nH]cc2-c2ccc(OC)cc2)c(O)c1,AC50,[7],7.79 µM (active)
same,CC50,[6],14.8 µM (active)
Cc1nc(Sc2ccc(Cl)cc2)c(C#N)c(C)c1[N+](=O)[O-],CC50,[6],13.2 µM (active)
CC(C)(C)c1cc(C(=O)NNc2ccc(OC(F)(F)F)cc2)n(Cc2ccccc2)n1,EC50,[4],> 160 µM (inactive)
same,EC50,[5],3.05 µM (active)
CCCN(CCC)S(=O)(=O)c1ccc(NC(=O)c2cc(C(=O)OC)cc([N+](=O)[O-])c2)cc1,EC50,[8],0.323 µM (active)
same,EC50,[1],> 195 µM (not active)
same,EC50,[9],> 60 µM (inconclusive)
CCOC(=O)COc1ccc(S(=O)(=O)N2CCN(c3ccccc3F)CC2)cc1,EC50,[4],> 150 µM (inconclusive)
same,EC50,[5],> 38 µM (not active)
N#Cc1c(NC(=O)c2nc3ncccn3n2)sc2c1CCCCC2,EC50,[4],> 150 µM (inactive)
same,EC50,[5],0.403 µM (active)
CC(=O)ON1C(C)(C)CC(OC(=O)c2ccccc2)CC1(C)C,EC50,[10],124 µM (active)
CS(=O)(=O)N(CC(=O)NCCSC1CCCCC1)c1ccc2c(c1)OCO2,EC50,[1],> 195 µM (not active)
COc1ccccc1NC(=O)CN1CCN(c2ccccc2OC)CC1,EC50,[4],> 160 µM (inactive)
same,EC50,[5],> 38 µM (not active)
CCC1=CC(c2ccccc2)n2ncnc2N1 (stereo not drawn),EC50,[1],> 195 µM (not active)
O=C(Nc1cc(F)cc(F)c1)c1ccc(NCCCN2CCCCCC2)c([N+](=O)[O-])c1,EC50,[4],105 µM (active)
same,EC50,[5],> 38 µM (not active)
COc1cc(/C=C/C(=O)NC(C)C2CC3CCC2C3)cc(OC)c1OC (stereo not drawn),EC50,[1],> 195 µM (not active)
O=[N+]([O-])c1cccc(CN2[C@@H](Cc3ccccc3)COCCS2(=O)=O)c1,EC50,[1],> 195 µM (not active)
O=C(Nc1ccc2c(c1)CCCN2C(=O)c1cccs1)c1c(F)cccc1Cl,CC50,[6],24.1 µM (active)
Cc1cccc2cc(CN(CC3CCCO3)C(c3nnnn3Cc3ccco3)C(C)C)c(O)nc12 (stereo not drawn),CC50,[6],16.8 µM (active)
COc1ccc(S(=O)(=O)N2CCCCN3[C@H](C2)[C@@H](c2ccc(C#CC(C)C)cc2)[C@@H]3CO)cc1,AC50,Paired box protein Pax-8,6.14 µM (active)
CC(C)CC#Cc1ccc2c(c1)O[C@@H](CN(C)Cc1ccncc1)[C@H](C)CN([C@@H](C)CO)S2(=O)=O,AC50,Paired box protein Pax-8,5.97 µM (active)
C[C@@H]1CN([C@@H](C)CO)C(=O)c2cc(NS(=O)(=O)c3ccc(Cl)cc3)ccc2O[C@@H](C)CCCCO[C@H]1CN(C)Cc1ccc(C(F)(F)F)cc1,AC50,Paired box protein Pax-8,8.29 µM (active)
CN(C)c1ccc(/C=N/Nc2ccc(-n3ccnc3)nn2)cc1,EC50,[1],> 195 µM (not active)
same,AC50,[11],3.85 µM (active)
CCOC(=O)C1CCCN(c2nc3ccccc3nc2C(C#N)C(=O)OCC)C1 (stereo not drawn),CC50,[6],33.7 µM (active)
C=CC[N+]1(C)CC[C@]23c4c5ccc(O)c4O[C@H]2C(=O)CC[C@@]3(O)[C@H]1C5 (stereo partly drawn) [NALOXONE METHIODIDE],IC50,[2],9.73 µM (active)
